We go through two molecules from patent US5270308A, “1,3-benzoxazine derivatives, their production and use” (Takeda Chemical Industries, Ltd., priority 1990, dated 1993).

The subject of assay [1] is Rat Aorta Sample (constriction by TEA and Ba). Description: Vasorelaxation activity in rat aorta sample: effect on constriction caused by tetraethylammonium chloride (TEA) and barium chloride (Ba). The note with it: TEA (30 to 45 mM) and Ba (0.3 mM), rat aorta ring, read-out: constriction inhibitory ratio (%). The format is cell-based, Male Wister rats. Here is the method:
(§1) Vasorelaxation Activity in Rat Aorta Sample
Effect on Relaxation Caused by Tetraethylammonium Chloride (TEA) and Barium Chloride (Ba)
Method: Male Wister rats (10 to 13 weeks old) were used for the experiment. After dehematization, the aorta was excised and a ring sample (5 mm) was prepared. The sample was suspended in a bath filled with oxygenated (95% O2 -5% CO2) Krebs solution (36° C.). The ring sample was fixed at one end and the other end was connected to a transducer (Nippon Koden, Japan) for recording tension and the tension was measured. After a stabilization period of 1 hour, TEA (30 to 45 mM) and Ba (0.3 mM) were added to the bath to cause vasoconstriction. After the constriction has reached a steady state (after about 15 minutes), a test compound was added to the bath and its relaxation activity was measured.
Result: The results are shown in Table 3 in terms of the inhibitory ratio of the test compound.

The subject of assay [2] is Rat Aorta Sample (constriction by KCl). Nature of the assay: Vasorelaxation activity in rat aorta sample: effect on constriction caused by potassium chloride (KCl). The format is cell-based, Male Wister rats. The note with it: KCl (80 mM), rat aorta ring, read-out: constriction inhibitory ratio (%). Here is the method:
as §1
Effect on Relaxation Caused by Potassium Chloride (KCl)
Method: According to the same manner as that described in Experiment 1, this experiment was carried out except that KCl (80 mM) was used instead of TEA and Ba.
Result: The results are shown in Table 4 in terms of the inhibitory ratio of the test compound.

Assay [3] concerns spontaneously hypertensive rat. Description: Hypotensive activity in spontaneously hypertensive rats. As to conditions: po, orally, conscious spontaneously hypertensive rat, male, 20 to 23 weeks old, read-out: maximum effect (%) (mean ratio of maximum decrease in the blood pressure). The format is in vivo. Here is the method:
Hypotensive Activity in Rats
Method: A spontaneously hypertensive rat (male, 20 to 23 weeks old) was operated in advance for retaining a cannula for blood pressure measurement in the left femoral artery. The experiment was carried out for the rat when waking on the next day after the operation. The cannula was connected with a transducer (Specrtramed) upon the experiment and the blood pressure was measured (Nippon Koden, Japan). A test compound was suspended in gum arabic and the suspension was administered orally.

As to `CC1(C)N=C(c2cccc[n+]2[O-])c2cc(Br)ccc2O1` [Compound 23, 2-(6-bromo-2,2-dimethyl-2H-1,3-benzoxazin-4-yl)pyridine N-oxide], the inhibition at 1 µM in assay [1] was 19%; in assay [2], -1%. Further, the inhibition at 3 µM was 82% in assay [1] (3 μM) and 1% in assay [2] (3 μM). For the same molecule, the figures for the inhibition at 10 µM in assay [1] (10 μM) and in assay [2] (10 μM) were 100% and 4%, respectively. For the same molecule, the inhibition in vivo at 1 mg/kg in assay [3] is 32%.

Consider `CC1(C)N=C(c2cccc[n+]2[O-])c2cc([N+](=O)[O-])ccc2O1` [Compound 29, 2-(2,2-dimethyl-6-nitro-2H-1,3-benzoxazin-4-yl)pyridine N-oxide], for which the inhibition at 1 µM was 74% in assay [1] and -8% in assay [2]. Moreover, in assay [3], the inhibition in vivo at 1 mg/kg amounted to 61%.
